Key:
[1] = tested on: Subjects With Active Crohn's Disease With Evidence of Mucosal Ulceration; test: Study 3 - Inflammatory Bowel Disease Questionnaire (IBDQ) scores; format: in vivo, human; conditions: 200 mg, LOCF
Text: Double-Blind, Randomized, Placebo-Controlled, Multi-Centre Study to Investigate the Efficacy and Safety of Compound 1 in Subjects With Active Crohn's Disease With Evidence of Mucosal Ulceration. This is a double-blind, randomized, placebo-controlled, multi-centre Phase 2 study to investigate the efficacy and safety of Compound 1 administered once daily for the treatment of active CD with evidence of mucosal ulceration. The pharmacokinetics (including a PK substudy) and pharmacodynamics of Compound 1 and metabolite in CD will also be characterised. A total of 180 eligible subjects will be randomized to receive Compound 1 or placebo in addition to their stable background treatment (eg, corticosteroids, aminosalicylates, or CD-related antibiotics). The study will consist of 2 parts, with total treatment duration of 20 weeks. Randomization in Part 1 will be stratified according the subject's previous anti-TNF exposure/response, CRP level at Screening, and oral corticosteroid use at visit Day -1. After the first 10 weeks of treatment in Part 1, patients will be re-randomized for Part 2 as shown in the diagram below and will be stratified according to the subject's clinical response, previous anti-TNF exposure/response, and oral corticosteroid use at visit Day -1. [table] The Inflammatory Bowel Disease Questionnaire (IBDQ) is a questionnaire for health-related quality of life assessment in patients with inflammatory bowel diseases: ulcerative colitis and Crohn's disease. It consists of 32 questions divided into four groups: bowel symptoms (10 items), systemic symptoms (5 items), emotional function (12 items) and social function (5 items). Every question has graded responses from 1 to 7, and thus the total score is ranging from 32 to 224 with higher scores representing better quality of life. The IBDQ is a validated assessment tool that reflects important changes in the quality of life of patients with IBD (adapted from […] et al, Inflamm Bowel Dis, Volume 10, Number 3, May 2004)

[2] = tested on: Subjects With Active Crohn's Disease With Evidence of Mucosal Ulceration; test: Study 3 - Histopathology score; format: in vivo, human; conditions: 200 mg, LOCF
Text: Double-Blind, Randomized, Placebo-Controlled, Multi-Centre Study to Investigate the Efficacy and Safety of Compound 1 in Subjects With Active Crohn's Disease With Evidence of Mucosal Ulceration.
This is a double-blind, randomized, placebo-controlled, multi-centre Phase 2 study to investigate the efficacy and safety of Compound 1 administered once daily for the treatment of active CD with evidence of mucosal ulceration. The pharmacokinetics (including a PK substudy) and pharmacodynamics of Compound 1 and metabolite in CD will also be characterised.
A total of 180 eligible subjects will be randomized to receive Compound 1 or placebo in addition to their stable background treatment (eg, corticosteroids, aminosalicylates, or CD-related antibiotics). The study will consist of 2 parts, with total treatment duration of 20 weeks. Randomization in Part 1 will be stratified according the subject's previous anti-TNF exposure/response, CRP level at Screening, and oral corticosteroid use at visit Day −1.
After the first 10 weeks of treatment in Part 1, patients will be re-randomized for Part 2 as shown in the diagram below and will be stratified according to the subject's clinical response, previous anti-TNF exposure/response, and oral corticosteroid use at visit Day -1.
Histopathology data is collected from patients biopsy, and evaluated according to the procedure reported in D'haens et al., 1998.

[3] = Anti-TNF experienced non-responders
[4] = baseline corticosteroid use: with steroids
[5] = baseline corticosteroid use: without steroids

## O=C(Nc1nc2cccc(-c3ccc(CN4CCS(=O)(=O)CC4)cc3)n2n1)C1CC1 [Compound 1, cyclopropanecarboxylic acid {5-[4-(1,1-dioxo-thiomorpholin-4-ylmethyl)-phenyl]-[1,2,4]triazolo[1,5-a]pyridin-2-yl}-amide]
[1]; Baseline
  IBDQ Bowel symptoms: 41.07
  IBDQ Emotional status: 45.91
  IBDQ Social functioning: 19.26
  IBDQ Systemic symptoms: 16.32
  IBDQ mean CFB: 123.00
[1]; week 10
  IBDQ Bowel symptoms: 9.96
  IBDQ Emotional status: 12.07
  IBDQ Social functioning: 6.19
  IBDQ Systemic symptoms: 5.73
  IBDQ mean CFB: 33.82
[2]; Anti-TNF Naïve
  Overall total score mean, % CFB at week 10: −14%
  Overall total score mean, CFB at week 10: −3.9
  Overall total score mean, baseline: 20.3
  Overall total score mean, week 10: 16.1
[2]; [3]
  Overall total score mean, % CFB at week 10: −7%
  Overall total score mean, CFB at week 10: −3.2
  Overall total score mean, baseline: 25.0
  Overall total score mean, week 10: 21.6
[2]; [4]
  Overall total score mean, % CFB at week 10: −15%
  Overall total score mean, CFB at week 10: −4.3
  Overall total score mean, baseline: 24.9
  Overall total score mean, week 10: 20.3
[2]; [5]
  Overall total score mean, % CFB at week 10: −5%
  Overall total score mean, CFB at week 10: −2.7
  Overall total score mean, baseline: 20.7
  Overall total score mean, week 10: 17.9
[2]; overall
  Overall total score mean, % CFB at week 10: −10%
  Overall total score mean, CFB at week 10: −3.5
  Overall total score mean, baseline: 22.8
  Overall total score mean, week 10: 19.1
[2]; screening CRP ≤ 10 ml/L
  Overall total score mean, % CFB at week 10: −20%
  Overall total score mean, CFB at week 10: −4.8
  Overall total score mean, baseline: 21.8
  Overall total score mean, week 10: 17.1
[2]; screening CRP ≥ 10 mg/L
  Overall total score mean, % CFB at week 10: 4%
  Overall total score mean, CFB at week 10: −1.8
  Overall total score mean, baseline: 24.3
  Overall total score mean, week 10: 21.8
